US20250319021A1, “COMPOSITION OF HYDROGEL LOADED WITH HORMONE” (VITALTE LIFESCIENCES INC., priority 2024, published 2025)

Experiments:
[1] = T release rate comparison in saline incubation media; assay type: physicochemical; details: 2, 4 and 6 hours
Protocol: In order to compare the release rate results of hydrogel encapsulated T to pelleted T, larger gels had to be prepared as the T pellets which the hydrogels are intended to replace are 25 mg, where the E2 pellets are merely 6 mg. Thus, approximately 83 mg of hydrogel at 30% T loading and 1% HA were prepared. In order to achieve even or consistent crosslinking in these much larger hydrogel samples, Likarda's patented micromolds (shown in FIG. 21) were employed. After formation, the encapsulated T was removed from the molds and placed in tubes to be rotated for an hour. The encapsulated T hydrogels were then removed from the tubes and stored in Dulbecco's PBS buffer. The large hydrogel blocks encapsulating T were then tested and compared to 25 mg T pellets and micronized T powder.
The T powder was produced as a 2.5 mg/mL slurry in buffer to reach the near saturation point of T in the buffer. Samples of the T powder slurry were removed from only the top layer of the slurry fluid to avoid aspirating T particles in the slurry that may have precipitated at to the bottom. T pellets were collected directly from the vials in which they were stored. The 83 mg hydrogels containing 30% T were collected from Dulbecco's PBS buffer, rinsed, and dried. Each of the collected samples was then placed in a separate container of incubation media (saline in this instance) for the release studies. […]

[2] = cited from earlier work

| Compound | T release level / approximate saturation level of T in saline [1] | solubility in water compared to E2 [2] |
| --- | --- | --- |
| C[C@]12CC[C@H]3[C@@H](CCC4=CC(=O)CC[C@@]43C)[C@@H]1CC[C@@H]2O [T powder, Testosterone] | about 1.5 mg/L | – |
| C[C@]12CC[C@H]3[C@@H](CCC4=CC(=O)CC[C@@]43C)[C@@H]1CC[C@@H]2O [Testosterone (T), Testosterone] | – | much higher solubility factor in water compared to E2 |
